Test results from patent US5614213A, “Use of estriol for treatment of climacteric osteoporosis” (priority 1992, dated 1997).
Entries after “also recorded” stand apart in the source; their conditions may differ.

Assays:
ovulation in women = details: lower dosages than 5 mg/day; cited from earlier work
osteoporosis = details: cited from earlier work; for prevention of osteoporosis in the climacteric: hormone replacement
[1] = test system: arteriosclerotic vascular changes; details: hormone replacement; cited from earlier work
[2] = test system: castrated (OVX) Wistar rats; test: Hydroxyproline level in serum of ovariectomized rats after estriol application; assay type: in vivo; details: for Hydroxyproline content in the serum: mean
Description: (§1) Investigation of the osteoporotic action of estriol on ovariectomized rats
(§2) 11 week-old female Wistar rats lose a considerable proportion of their bone substance in two weeks after ovariectomy. It was to be investigated whether this effect is preventable through estriol. For this, this hormone was to be applied such that constant hormone levels are established over the whole test period. […] The assumption that estriol has insufficient activity as a partial estrogen antagonist at the bone was also to be examined as another possibility.
(§3) Female Wistar rats from the experimental animal breeders "Biomodelle GmbH", O-1291 Schonwalde (breed: Wistar) were supplied at ages from nine to ten weeks and kept under conventional conditions at a room temperature of 22° C.[…] and under a light regime (14 h light and 10 h dark) in PVC shells with fitted wire covers.
(§4) The animals received standard formulation R 13 feed and drinking water ad libitum.
(§5) At the age of 11 weeks (body weight approximately 220 g) the animals were used in the experiment.
(§6) Subcutaneous application osmotic pumps. Model: Alzet 2002, capacity of the reservoir 200 μl. Throughflow 0.5 μl/hour. Solution of the test substance in propylene glycol.
(§7) The duration of the whole experiment was 3 weeks, 1 week before castration and two weeks (15 days) after castration.
In the week prior to castration, characteristic parameters. were determined "as starting values" prior to the estrogen-specific bone degradation through ovariectomy (hydroxyproline content in the 24-h-urine, hydroxyproline content and estriol concentration in the serum). […]
(§8) Hydroxyproline is released during the decomposition of collagen which also accounts for a considerable proportion of the bone substance.

[3] = test system: castrated (OVX) Wistar rats; test: Hydroxyproline excretion in 24-h urine of ovariectomized rats after estriol application; assay type: in vivo; details: for Hydroxyproline content in the urine: mean, n = 8
Description: as §1, §2, §3, §4, §5, §6, §7
In the week prior to castration, characteristic parameters. were determined "as starting values" prior to the estrogen-specific bone degradation through ovariectomy (hydroxyproline content in the 24-h-urine, hydroxyproline content and estriol concentration in the serum).
For the determination of the hydroxyproline content in the urine, the collective urine was obtained over 24 hours. For this, the animals were individually placed once a week in diuresis cages which permitted a sufficiently clean collection of urine, separate from faeces. The hydroxyproline content was then determined in the collective urine of each individual animal.
as §8

femur bones = test: Trabecular proportion of the bone volume (femur histology) after ovariectomy; assay type: in vivo, Wistar rats
Description: as §1, §2, §3, §4, §5, §6, §7
At the end of the experiment the animals were killed and the femur bones fixed for histological investigations according to standard methods, cut with a hard cut microtome and investigated qualitatively and quantitatively as regards morphological features.
The effect on the proportion of trabecular structures in the surface of bone sections was determined as a parameter of the osteoprotective effect of estriol.

uterus = details: administered once to ovariectomized rats; cited from earlier work
bones = details: dosage quantities of 12 mg/day oral; cited from earlier work
mastocarcinomas = details: mastocarcinoma; induction and promotion phases; cited from earlier work
receptor = details: in combination with "strong" estrogens; cited from earlier work
[4] = conjugation with glucuronic acid or sulphate in the liver; cited from earlier work
[5] = OVX + D1, estriol 0.1 μg/24 hrs, day 7 after castration
[6] = OVX + D1, estriol 0.1 μg/24 hrs, day 15 after castration
[7] = OVX + D2, estriol 1.0 μg/24 hrs, day 7 after castration
[8] = OVX + D2, estriol 1.0 μg/24 hrs, day 15 after castration
[9] = OVX + D3, estriol 10.0 μg/24 hrs, day 7 after castration
[10] = OVX + D3, estriol 10.0 μg/24 hrs, day 15 after castration
[11] = OVX + D4, estriol 50.0 μg/24 hrs, day 7 after castration
[12] = OVX + D4, estriol 50.0 μg/24 hrs, day 15 after castration
[13] = OVX + D1, estriol 0.1 μg/24 hrs, day 12 after castration
[14] = OVX + D1, estriol 0.1 μg/24 hrs, day 13 after castration
[15] = OVX + D1, estriol 0.1 μg/24 hrs, day 14 after castration
[16] = OVX + D2, estriol 1.0 μg/24 hrs, day 12 after castration
[17] = OVX + D2, estriol 1.0 μg/24 hrs, day 13 after castration
[18] = OVX + D2, estriol 1.0 μg/24 hrs, day 14 after castration
[19] = OVX + D3, estriol 10.0 μg/24 hrs, day 12 after castration
[20] = OVX + D3, estriol 10.0 μg/24 hrs, day 13 after castration
[21] = OVX + D3, estriol 10.0 μg/24 hrs, day 14 after castration

C[C@]12CC[C@@H]3c4ccc(O)cc4CC[C@H]3[C@@H]1CC[C@@H]2O [estradiol]
suppression of ovulation in women (ovulation in women): clearly possible | prevention of osteoporosis in the climacteric (osteoporosis): can prevent advancing osteoporosis in the climacteric | effect on arteriosclerotic vascular changes [1]: can slow the advance of arteriosclerotic vascular changes

C[C@]12CC[C@@H]3c4ccc(O)cc4CC[C@H]3[C@@H]1C[C@@H](O)[C@@H]2O [estriol]
Hydroxyproline content in the serum ([2]; OVX + D1, estriol 0.1 μg/24 hrs, day 0 after castration (starting value), n = 8): 30,55 μmol/1 l | relative change of hydroxyproline content in the serum [2, 5]: 18,44% | Hydroxyproline content in the serum ([2]; OVX + D1, estriol 0.1 μg/24 hrs, day 7 after castration, n = 8): 35,31 μmol/1 l | relative change of hydroxyproline content in the serum [2, 6]: 11,66% | Hydroxyproline content in the serum ([2]; OVX + D1, estriol 0.1 μg/24 hrs, day 15 after castration, n = 8): 33,36 μmol/1 l | Hydroxyproline content in the serum ([2]; OVX + D2, estriol 1.0 μg/24 hrs, day 0 after castration (starting value), n = 8): 30,74 μmol/1 l | relative change of hydroxyproline content in the serum [2, 7]: 8,82% | Hydroxyproline content in the serum ([2]; OVX + D2, estriol 1.0 μg/24 hrs, day 7 after castration, n = 8): 33,20 μmol/1 l | relative change of hydroxyproline content in the serum [2, 8]: 0,39% | Hydroxyproline content in the serum ([2]; OVX + D2, estriol 1.0 μg/24 hrs, day 15 after castration, n = 8): 30,51 μmol/1 l | Hydroxyproline content in the serum ([2]; OVX + D3, estriol 10.0 μg/24 hrs, day 0 after castration (starting value), n = 8): 28,16 μmol/1 l | relative change of hydroxyproline content in the serum [2, 9]: -3,56% | Hydroxyproline content in the serum ([2]; OVX + D3, estriol 10.0 μg/24 hrs, day 7 after castration, n = 8): 26,25 μmol/1 l | relative change of hydroxyproline content in the serum [2, 10]: -23,81% | Hydroxyproline content in the serum ([2]; OVX + D3, estriol 10.0 μg/24 hrs, day 15 after castration, n = 8): 20,90 μmol/1 l | Hydroxyproline content in the serum ([2]; OVX + D4, estriol 50.0 μg/24 hrs, day 0 after castration (starting value), n = 9): 28,26 μmol/1 l | relative change of hydroxyproline content in the serum [2, 11]: -8,87% | Hydroxyproline content in the serum ([2]; OVX + D4, estriol 50.0 μg/24 hrs, day 7 after castration, n = 9): 25,45 μmol/1 l | relative change of hydroxyproline content in the serum [2, 12]: -38,62% | Hydroxyproline content in the serum ([2]; OVX + D4, estriol 50.0 μg/24 hrs, day 15 after castration, n = 9): 17,33 μmol/1 l | effect on increase of hydroxyproline in the blood after ovariectomy ([2]; result in words, Table 2): this increase was suppressed through treatment with estriol in dose-dependent manner | Hydroxyproline content in the urine ([3]; OVX + D1, estriol 0.1 μg/24 hrs, day 0 after castration (starting value)): 1,46 μmol/1 d | relative change of hydroxyproline content in the urine [3, 5]: 56,95% | Hydroxyproline content in the urine [3, 5]: 2,15 μmol/1 d | relative change of hydroxyproline content in the urine [3, 13]: 84,62% | Hydroxyproline content in the urine [3, 13]: 2,41 μmol/1 d | relative change of hydroxyproline content in the urine [3, 14]: 79,03% | Hydroxyproline content in the urine [3, 14]: 2,51 μmol/1 d | relative change of hydroxyproline content in the urine [3, 15]: 59,47% | Hydroxyproline content in the urine [3, 15]: 2,11 μmol/1 d | relative change of hydroxyproline content in the urine [3, 6]: 40,95% | Hydroxyproline content in the urine [3, 6]: 2,00 μmol/1 d | Hydroxyproline content in the urine ([3]; OVX + D2, estriol 1.0 μg/24 hrs, day 0 after castration (starting value)): 1,63 μmol/1 d | relative change of hydroxyproline content in the urine [3, 7]: 15,48% | Hydroxyproline content in the urine [3, 7]: 1,94 μmol/1 d | relative change of hydroxyproline content in the urine [3, 16]: 74,86% | Hydroxyproline content in the urine [3, 16]: 2,97 μmol/1 d | relative change of hydroxyproline content in the urine [3, 17]: 42,71% | Hydroxyproline content in the urine [3, 17]: 2,40 μmol/1 d | relative change of hydroxyproline content in the urine [3, 18]: 37,83% | Hydroxyproline content in the urine [3, 18]: 2,31 μmol/1 d | relative change of hydroxyproline content in the urine [3, 8]: 10,69% | Hydroxyproline content in the urine [3, 8]: 1,83 μmol/1 d | Hydroxyproline content in the urine ([3]; OVX + D3, estriol 10.0 μg/24 hrs, day 0 after castration (starting value)): 1,67 μmol/1 d | relative change of hydroxyproline content in the urine [3, 9]: 47,88% | Hydroxyproline content in the urine [3, 9]: 0,88 μmol/1 d | relative change of hydroxyproline content in the urine [3, 19]: -40,47% | Hydroxyproline content in the urine [3, 19]: 0,98 μmol/1 d | relative change of hydroxyproline content in the urine [3, 20]: -36,63% | Hydroxyproline content in the urine [3, 20]: 1,04 μmol/1 d | relative change of hydroxyproline content in the urine [3, 21]: -48,91% | Hydroxyproline content in the urine [3, 21]: 0,94 μmol/1 d | relative change of hydroxyproline content in the urine [3, 10]: -28,45% | Hydroxyproline content in the urine [3, 10]: 1,16 μmol/1 d | relative change of hydroxyproline content in the urine [3, 11]: -34,52% | relative change of hydroxyproline content in the urine ([3]; OVX + D4, estriol 50.0 μg/24 hrs, day 12 after castration): -33,26% | relative change of hydroxyproline content in the urine ([3]; OVX + D4, estriol 50.0 μg/24 hrs, day 13 after castration): -35,04% | relative change of hydroxyproline content in the urine ([3]; OVX + D4, estriol 50.0 μg/24 hrs, day 14 after castration): -38,21% | relative change of hydroxyproline content in the urine [3, 12]: -40,43% | effect on increase of hydroxyproline excretion in the urine after castration ([3]; result in words, Table 3): can also be alleviated through treatment with estriol | % trabecular proportion of the bone volume (femur bones; OVX + 0.1 microg E3/day): 16.89% | % trabecular proportion of the bone volume (femur bones; OVX + 1.0 microg E3/day): 17.46% | % trabecular proportion of the bone volume (femur bones; OVX + 10.0 microg E3/day): 24.79% | % trabecular proportion of the bone volume (femur bones; OVX + 50.0 microg E3/day): 26.64% | osteoprotective potential (femur bones; overall evaluation, uniform levels of active ingredient): has an osteoprotective potential | effect on decomposition of bone mass after castration (femur bones; result in words, Table 4): alleviated by estriol in a dose-dependent manner | stimulation of uterine weights (uterus): does not significantly stimulate uterine weights | osteoprotective effectiveness in the bones (bones): developed no osteoprotective effectiveness in the bones | anti-tumour effect (mastocarcinomas): can prevent or suppress the development of mastocarcinomas; also recorded: proven anti-tumour effect | anti-estrogen action (receptor): proved to have an anti-estrogen action | effectiveness for osteoporosis prophylaxis (osteoporosis; official statement / text book): ineffectiveness; also recorded: Not effective for osteoporosis prophylaxis | inactivation of estriol [4]: inactivated extremely quickly

C[C@]12CC[C@@H]3c4ccc(O)cc4CC[C@H]3[C@@H]1CCC2=O [estrone]
prevention of osteoporosis in the climacteric (osteoporosis): can prevent advancing osteoporosis in the climacteric | effect on arteriosclerotic vascular changes [1]: can slow the advance of arteriosclerotic vascular changes
